Data on five molecules can be found in patent US10570184B2, “GLP-1/glucagon receptor co-agonists for medical use” (Novo Nordisk A/S, priority 2014, dated 2020).

The assay addresses T1, human GLP-1 receptor (Homo sapiens, UniProt P43220).
T1 construct: expressed in transfected cells; host or cells: membranes of BHK cells (parent BHKTS13), clone FCW467-12A
Briefly: Assay (I)(a) GLP-1 receptor activation, CRE luciferase reporter gene assay in BHK cells. Type of assay: cell-based. To be noted: without presence of serum albumin; read-out: GLP-1R EC50 (pM) [Assay (I)(a)]. In outline: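 Stable BHK clone expressing human GLP-1 receptor with CRE-driven firefly luciferase, 5×10EE3 cells/well in medium with 2% ovalbumin and 0.2% Pluronic F-68. Compounds at 1×10EE-13 to 1×10EE-6 M final, 3 h at 37° C.; luminescence read, EC50 (pM) from four-parameter fit.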

Starred links: 1 amine or outer side, 2 acyl side, 3 side chain; linkers in the order of their positions; H or OH if unused. Non-standard residues stand in square brackets, D forms with d. Residues, ends and D or L forms follow the SMILES beside them. Groups on a side chain read outwards from the residue. *: point of attachment. C18 diacid = O=C(O)CCCCCCCCCCCCCCCCC(=O)*; γGlu = O=C(O)[C@H](CCC(=O)[*:2])N[*:1]; Ac4c = NC1(C(=O)O)CCC1; AEEA = NCCOCCOCC(=O)O; Aib = CC(C)(N)C(=O)O

T1 sequence (P43220 24-463): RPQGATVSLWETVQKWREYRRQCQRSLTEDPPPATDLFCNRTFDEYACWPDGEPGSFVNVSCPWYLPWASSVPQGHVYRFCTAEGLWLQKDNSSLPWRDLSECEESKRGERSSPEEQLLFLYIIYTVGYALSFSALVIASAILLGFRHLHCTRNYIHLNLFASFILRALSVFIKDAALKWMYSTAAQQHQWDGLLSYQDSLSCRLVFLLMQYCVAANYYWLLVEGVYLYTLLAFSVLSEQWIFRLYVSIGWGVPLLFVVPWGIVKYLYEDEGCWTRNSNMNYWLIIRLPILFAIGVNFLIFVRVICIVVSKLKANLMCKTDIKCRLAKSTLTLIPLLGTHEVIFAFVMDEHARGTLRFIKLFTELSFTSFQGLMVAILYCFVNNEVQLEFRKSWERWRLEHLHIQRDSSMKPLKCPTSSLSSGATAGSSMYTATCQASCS

The term EC50 denotes the concentration at which the effect is half-maximal. `CC[C@H](C)[C@H](NC(=O)[C@H](CC(C)C)NC(=O)[C@H](Cc1c[nH]c2ccccc12)NC(=O)[C@H](C)NC(=O)[C@@H](NC(=O)[C@H](Cc1ccccc1)NC(=O)[C@H](CC(=O)O)NC(=O)[C@H](CCCNC(=N)N)NC(=O)[C@H](C)NC(=O)[C@H](CCCNC(=N)N)NC(=O)[C@H](CCCNC(=N)N)NC(=O)[C@H](CC(C)C)NC(=O)[C@H](CC(=O)O)NC(=O)[C@H](CC(C)C)NC(=O)[C@H](Cc1ccc(O)cc1)NC(=O)[C@H](CCCCN)NC(=O)[C@H](CO)NC(=O)[C@H](CC(C)C)NC(=O)[C@H](CC(=O)O)NC(=O)[C@H](CO)NC(=O)[C@@H](NC(=O)[C@H](Cc1ccccc1)NC(=O)[C@@H](NC(=O)CNC(=O)[C@H](CCC(N)=O)NC(=O)C(C)(C)NC(=O)[C@@H](N)Cc1c[nH]cn1)[C@@H](C)O)[C@@H](C)O)C(C)C)C(=O)N[C@@H](CC(N)=O)C(=O)N[C@@H](CCCCNC(=O)CC[C@H](NC(=O)CC[C@H](NC(=O)COCCOCCNC(=O)COCCOCCNC(=O)CC[C@H](NC(=O)CCCCCCCCCCCCCCCCC(=O)O)C(=O)O)C(=O)O)C(=O)O)C(N)=O` [Chem. 24, N^ε29-[(4S)-4-carboxy-4-[[(4S)-4-carboxy-4-[[2-[2-[2-[[2-[2-[2-[[(4S)-4-carboxy-4-(17-carboxyheptadecanoylamino)butanoyl]amino]ethoxy]ethoxy]acetyl]amino]ethoxy]ethoxy]acetyl]amino]butanoyl]amino]butanoyl]-[Aib2,Leu10,Leu16,Arg20,Ala24,Ile27,Lys29]-Glucagon amide] (H-H[Aib]QGTFTSDLSKYLDLRRARDFVAWLINK([γGlu-γGlu-AEEA-AEEA-γGlu-C18 diacid])-NH2; N-terminus assumed): the half-maximal effective concentration (EC50) was 3 pM.

`CC[C@H](C)[C@H](NC(=O)[C@H](CC(C)C)NC(=O)[C@H](Cc1c[nH]c2ccccc12)NC(=O)[C@H](CCC(N)=O)NC(=O)[C@@H](NC(=O)[C@H](Cc1ccccc1)NC(=O)[C@H](CCC(=O)O)NC(=O)[C@H](CCCNC(=N)N)NC(=O)[C@H](C)NC(=O)[C@H](CCCNC(=N)N)NC(=O)[C@H](CCCNC(=N)N)NC(=O)[C@H](CO)NC(=O)[C@H](CCC(=O)O)NC(=O)[C@H](CC(C)C)NC(=O)[C@H](Cc1ccc(O)cc1)NC(=O)[C@H](CCCCN)NC(=O)[C@H](CO)NC(=O)[C@H](CC(C)C)NC(=O)[C@H](CC(=O)O)NC(=O)[C@H](CO)NC(=O)[C@@H](NC(=O)[C@H](Cc1ccccc1)NC(=O)[C@@H](NC(=O)CNC(=O)[C@H](CCC(N)=O)NC(=O)C(C)(C)NC(=O)[C@@H](N)Cc1c[nH]cn1)[C@@H](C)O)[C@@H](C)O)C(C)C)C(=O)N[C@@H](CCCCNC(=O)CC[C@H](NC(=O)CC[C@H](NC(=O)COCCOCCNC(=O)COCCOCCNC(=O)CC[C@H](NC(=O)CC[C@H](NC(=O)CCCCCCCCCCCCCCCCC(=O)O)C(=O)O)C(=O)O)C(=O)O)C(=O)O)C(=O)N[C@H](C(N)=O)[C@@H](C)O` [Chem. 25, N^ε28-[(4S)-4-carboxy-4-[[(4S)-4-carboxy-4-[[2-[2-[2-[[2-[2-[2-[[(4S)-4-carboxy-4-[[(4S)-4-carboxy-4-(17-carboxyheptadecanoylamino)butanoyl]amino]butanoyl]amino]ethoxy]ethoxy]acetyl]amino]ethoxy]ethoxy]acetyl]amino]butanoyl]amino]butanoyl]-[Aib2,Leu10,Glu15,Arg20,Glu21,Ile27,Lys28]-Glucagon amide] (H-H[Aib]QGTFTSDLSKYLESRRAREFVQWLIK([γGlu-γGlu-AEEA-AEEA-γGlu-γGlu-C18 diacid])T-NH2; N-terminus assumed): the 50% effective concentration (EC50) was 2 pM.

In the case of `CC[C@H](C)[C@H](NC(=O)[C@H](CC(=O)O)NC(=O)[C@H](CO)NC(=O)[C@@H](NC(=O)[C@H](Cc1ccccc1)NC(=O)[C@@H](NC(=O)CNC(=O)[C@H](CCC(N)=O)NC(=O)C1(NC(=O)[C@@H](N)Cc2c[nH]cn2)CCC1)[C@@H](C)O)[C@@H](C)O)C(=O)N[C@@H](CO)C(=O)N[C@@H](CCCCN)C(=O)N[C@@H](Cc1ccc(O)cc1)C(=O)N[C@@H](CC(C)C)C(=O)N[C@@H](CCC(=O)O)C(=O)N[C@@H](CO)C(=O)N[C@@H](CCCNC(=N)N)C(=O)N[C@@H](CCCNC(=N)N)C(=O)N[C@@H](C)C(=O)N[C@@H](CCCNC(=N)N)C(=O)N[C@@H](CCC(=O)O)C(=O)N[C@@H](Cc1ccccc1)C(=O)N[C@H](C(=O)N[C@@H](CCC(N)=O)C(=O)N[C@@H](Cc1c[nH]c2ccccc12)C(=O)N[C@@H](CC(C)C)C(=O)N[C@H](C(=O)N[C@@H](CCCCNC(=O)CC[C@H](NC(=O)CC[C@H](NC(=O)COCCOCCNC(=O)COCCOCCNC(=O)CC[C@H](NC(=O)CC[C@H](NC(=O)CCCCCCCCCCCCCCCCC(=O)O)C(=O)O)C(=O)O)C(=O)O)C(=O)O)C(=O)N[C@H](C(N)=O)[C@@H](C)O)[C@@H](C)CC)C(C)C` [Chem. 26, N^ε28-[(4S)-4-carboxy-4-[[(4S)-4-carboxy-4-[[2-[2-[2-[[2-[2-[2-[[(4S)-4-carboxy-4-[[(4S)-4-carboxy-4-(17-carboxyheptadecanoylamino)butanoyl]amino]butanoyl]amino]ethoxy]ethoxy]acetyl]amino]ethoxy]ethoxy]acetyl]amino]butanoyl]amino]butanoyl]-[Acb2,Ile10,Glu15,Arg20,Glu21,Ile27,Lys28]-Glucagon amide] (H-H[Ac4c]QGTFTSDISKYLESRRAREFVQWLIK([γGlu-γGlu-AEEA-AEEA-γGlu-γGlu-C18 diacid])T-NH2; N-terminus assumed), the EC50 came out at 2 pM.

As to `CC[C@H](C)[C@H](NC(=O)[C@H](CC(C)C)NC(=O)[C@H](Cc1c[nH]c2ccccc12)NC(=O)[C@H](CCC(N)=O)NC(=O)[C@@H](NC(=O)[C@H](Cc1ccccc1)NC(=O)[C@H](CC(=O)O)NC(=O)[C@H](CCCNC(=N)N)NC(=O)[C@H](C)NC(=O)[C@H](CCCNC(=N)N)NC(=O)[C@H](CCCNC(=N)N)NC(=O)[C@H](C)NC(=O)[C@H](CC(=O)O)NC(=O)[C@H](CC(C)C)NC(=O)[C@H](Cc1ccc(O)cc1)NC(=O)[C@H](CCCCN)NC(=O)[C@H](CO)NC(=O)[C@H](CC(C)C)NC(=O)[C@H](CC(=O)O)NC(=O)[C@H](CO)NC(=O)[C@@H](NC(=O)[C@H](Cc1ccccc1)NC(=O)[C@@H](NC(=O)CNC(=O)[C@H](CCC(N)=O)NC(=O)C(C)(C)NC(=O)[C@@H](N)Cc1c[nH]cn1)[C@@H](C)O)[C@@H](C)O)C(C)C)C(=O)N[C@@H](CO)C(=O)N[C@@H](CCCCNC(=O)CC[C@H](NC(=O)CC[C@H](NC(=O)COCCOCCNC(=O)COCCOCCNC(=O)CC[C@H](NC(=O)CCCCCCCCCCCCCCCCC(=O)O)C(=O)O)C(=O)O)C(=O)O)C(N)=O` [Chem. 27, N^ε29-[(4S)-4-carboxy-4-[[(4S)-4-carboxy-4-[[2-[2-[2-[[2-[2-[2-[[(4S)-4-carboxy-4-(17-carboxyheptadecanoylamino)butanoyl]amino]ethoxy]ethoxy]acetyl]amino]ethoxy]ethoxy]acetyl]amino]butanoyl]amino]butanoyl]-[Aib2,Leu10,Ala16,Arg20,Ile27,Ser28,Lys29]-Glucagon amide] (H-H[Aib]QGTFTSDLSKYLDARRARDFVQWLISK([γGlu-γGlu-AEEA-AEEA-γGlu-C18 diacid])-NH2; N-terminus assumed), the concentration giving a half-maximal response (EC50) worked out at 3 pM.

For the molecule `CC[C@H](C)[C@H](NC(=O)[C@H](CC(C)C)NC(=O)[C@H](Cc1c[nH]c2ccccc12)NC(=O)[C@H](CCC(N)=O)NC(=O)[C@@H](NC(=O)[C@H](Cc1ccccc1)NC(=O)[C@H](CCC(=O)O)NC(=O)[C@H](CCCNC(=N)N)NC(=O)[C@H](C)NC(=O)[C@H](CCCNC(=N)N)NC(=O)[C@H](CCCNC(=N)N)NC(=O)[C@H](C)NC(=O)[C@H](CC(=O)O)NC(=O)[C@H](CC(C)C)NC(=O)[C@H](Cc1ccc(O)cc1)NC(=O)[C@H](CCCCN)NC(=O)[C@H](CO)NC(=O)[C@H](CC(C)C)NC(=O)[C@H](CC(=O)O)NC(=O)[C@H](CO)NC(=O)[C@@H](NC(=O)[C@H](Cc1ccccc1)NC(=O)[C@@H](NC(=O)CNC(=O)[C@H](CCC(N)=O)NC(=O)C(C)(C)NC(=O)[C@@H](N)Cc1c[nH]cn1)[C@@H](C)O)[C@@H](C)O)C(C)C)C(=O)N[C@@H](CO)C(=O)N[C@@H](CCCCNC(=O)CC[C@H](NC(=O)CC[C@H](NC(=O)COCCOCCNC(=O)COCCOCCNC(=O)CC[C@H](NC(=O)CCCCCCCCCCCCCCCCC(=O)O)C(=O)O)C(=O)O)C(=O)O)C(N)=O` [Chem. 28, N^ε29-[(4S)-4-carboxy-4-[[(4S)-4-carboxy-4-[[2-[2-[2-[[2-[2-[2-[[(4S)-4-carboxy-4-(17-carboxyheptadecanoylamino)butanoyl]amino]ethoxy]ethoxy]acetyl]amino]ethoxy]ethoxy]acetyl]amino]butanoyl]amino]butanoyl]-[Aib2,Leu10,Ala16,Arg20,Glu21,Ile27,Ser28,Lys29]-Glucagon amide] (H-H[Aib]QGTFTSDLSKYLDARRAREFVQWLISK([γGlu-γGlu-AEEA-AEEA-γGlu-C18 diacid])-NH2; N-terminus assumed), the EC50 was determined as 3 pM.
